In test [1] the test system is endothelial cells (HUVEC). Description: Binding of biotinylated ADOPep to endothelial cells by FACS. On the set-up: species or system human. Particulars: 5 micrograms per 100,000 cells. The procedure: FIG. 3 is a FACS analysis depicting the binding (in percentages) of biotinylated ADOPep1 (ADOPep1^Biot), an ADAM15 derived peptide (SEQ ID NO:2), to endothelial cells (EC) under normoxia. Biotinylated ADOPep1 at 0.05, 0.5 and 5 microgram/ml (μg/ml) were added to endothelial cells.
FIG. 4 is a FACS analysis depicting the binding (in total counts) of Biotinylated ADOPep1 to endothelial cells under normoxia and hypoxia conditions. […] X axis—Intensity of binding.
Human umbilical endothelial cells (HUVEC) were harvested by trypsin and 100,000 cells per sample were suspended in PBS+5% FCS+0.1% Na azide. Endothelial cells were either exposed for 5 hours to hypoxia or remained under normoxia conditions. Cells were stained for 2 hours on ice in dark with 0.05, 0.5, 5 μg/100,000 cells biotinylated ADOPeps. The cells were then washed twice with PBS, following which the cells were stained for 30 minutes with FITC-labeled Streptavidin (Jackson ImmunoResearch Laboratories, PA, USA). After washing, samples were analyzed using a fluorescence activated cell sorter (FACScan Beckton Dickinson, Calif., USA).

The target of test [2] is GRP78 (Homo sapiens, UniProt P11021). Description: Immune precipitation of endothelial cell lysate with biotinylated ADOPep1, PAGE, Western blot, mass spectrometry. Format: binding. On the set-up: immune precipitation of endothelial cells lysate with biotinylated ADOPep1 under normoxia and hypoxia conditions; endogenous in cells; host or cells: HUVEC (lysate). Conditions: normoxia and hypoxia. Here is the method:
HUVEC were seeded in 90 mm Petri dishes plates for 24 hours with complete Endothelial Cell Growth Medium (PromoCell. Heildelberg, Germany). Cells were washed twice with PBS and buffer lysate (50 mM Tris Cl (pH 8, 150 mM Na Cl, 0.02% Na azide, 0.1% SDS, 100 μg/ml PMSF, 1 μg/ml protease inhibitors, 1% NP-40) was added for 20 minutes on ice. After incubation, cells were scraped with a rubber policeman and transferred to a chilled microfuge tube. After centrifugation of lysate at 12,000 g for 2 minutes at 4° C., supernatant was transferred to a fresh microfuge tube and stored at −70° C.
Aliquots samples of lysates (500 μl) were incubated with 10 μg of biotinylated ADOPep1 for one hour at 4° C. by gently mixing. Streptavidin Sepharose beads (Amersham Biosciences, Uppsla, Sweeden) (50 μl) were added to the sample for a second incubation one hour at 4° C. by gently mixing. After then, sample was centrifuge for 20 seconds at 12,000 g and the pellet was saved and further washed 3 times. Finally the pellet was suspended in 100 μl of sample buffer for Western blot analysis. For ELISA, protein was eluted by 5 minutes incubation of the sample at room temperature in 1 ml of Tris-Glycin 0.2M (pH 2.2), followed by titration with 1M Tris (pH 9.1). […]

Test [3] relates to endothelial cells (HUVEC). Description: Migration of endothelial cells under hypoxia (Chemicon QCM 96-well Migration Assay). Particulars: 5 hours hypoxia, 10 ng/ml. It is filed as cell-based, human. Here is the method:
FIG. 6 is a graph depicting migration of endothelial cells under hypoxia conditions. Endothelial cells (25,000) were incubated in endothelial cells growth medium free supplements in the migration chamber. ADOPep1 (SEQ ID NO:2), 2 (SEQ ID NO:3) and 3 (SEQ ID NO:4) were added to the feeder tray of the migratory kit at 1, 10 and 100 ng/ml for 5 hours hypoxia. Results were determined by a fluorescence ELISA reader and expressed as increase in percentage migration in Relative fluorescence Units.
FIGS. 26a-b are graphs depicting induction of endothelial cell migration under hypoxia by the ADOPEP motifs. Endothelial cells were incubated for 5 hours under hypoxia conditions in the presence of increasing concentrations of ADOPep1 (red line), peptide motif A (dark blue line), peptide motif B (green line) or peptide motif C (light blue line) and the migration of endothelial cells was detected. FIG. 26a—experiment 1; FIG. 26b—experiment 2.
Endothelial cell migration was evaluated by the Chemicon QCM 96-well Migration Assay (Chemicon International, Calif., USA) according to manufacturer's instructions. This kit utilizes a membrane with an 8 μm pore size. Migratory cells on the bottom of the insert membrane are dissociated from the membrane when incubated with cell detachment buffer provided by the kit. […] For the migration assay, HUVEC from passage 3 were incubated in endothelial cell (EC) growth medium free of supplements. After trypsinization, 25,000 EC were incubated in the migration chamber. ADOPeps were added at concentrations of 1, 10 and 100 ng/ml in the feeder tray for chemoattractant migration assay. Time of incubation was 5 hours for endothelial cells under hypoxic conditions. Results were determined in a Fluorescent ELISA reader at 480/520 nm.

Test [4] concerns endothelial cells. Description: Hypoxia-induced apoptosis of endothelial cells (Annexin V FITC/PI FACS). It is filed as cell-based, human. Particulars: 24 hours hypoxia; for effect on hypoxia-induced apoptosis of endothelial cells: peptides 10 ng/ml. The procedure:
FIG. 17 is a histogram depicting the effect of ADOPep1 on hypoxia-induced apoptosis of endothelial cells. Endothelial cells were exposed for 24 hours hypoxia in the presence of endothelial cell growth medium supplemented with 5% fetal calf serum (FCS), followed by incubation under hypoxia conditions with ADOPep1 (10 ng/ml) or anti-GRP78 antibody (100 ng/ml). Cells (100,000/tube) were incubated with Annexin-V FITC/PI for endothelial cell apoptosis determination. […] Similarly, anti-GRP78 antibody induced a reduction in apoptosis up to 32%.
FIGS. 24a-d are FACS analyses depicting hypoxia induced apoptosis. Endothelial cells were incubated for 24 hours under hypoxia conditions in the absence (FIG. 24a) or presence of 10 ng/ml of ADOPepe1 (FIG. 24b), peptide of Motif A (FIG. 24c) or peptide of motif C (FIG. 24d) and the level of apoptosis was determined using FACS analysis and the PI (shown on the Y axis)/Annexin V (shown on the X axis) markers.
FIG. 25 is a bar graph depicting the inhibition of hypoxia induced apoptosis by ADOPep 1, Motif A and Motif B. Endothelial cells were incubated for 24 hours under hypoxia conditions in the absence or presence of 10 ng/ml of ADOPepe1, Motif A, Motif B or motif C and the level of apoptosis was determined using FACS analysis and quantified as the percent of Annexin V and PI positive cells. The results represent average±standard deviation of 4 independent experiments.
FIGS. 33a-f are representative FACS analyses depicting a specific inhibition of hypoxia-induced apoptosis of endothelial cells by ADOPep1. Endothelial cells in Petri dishes were incubated for 24 hours with 5% FCS in supplement-free endothelial cell growth medium under normoxia (FIGS. 33a and d), exposed to 24 hours hypoxia (Figures c and f) or incubated under normoxia with 100 micromolar per 100,000 cells CoCl2 (FIGS. 33b and e), in the absence (FIGS. 33a-c) or presence (FIGS. 33d-f) of 10 ng/ml Adopep1 peptide (for 24 hours). Cells were trypsinized and immediately re-suspended in PBS with 5% FCS and 0.1% Na-azide. Samples containing 100,000 cells were tested for apoptosis using the Annexin-FITC (X axis) and propidium iodide (Y axis) kit (Bender Medsystems, Vienna, Austria), according to manufacturer's instructions. Results were analyzed by FACScan (Beckton Dickinson).
EC were incubated for 24 hours with 5% FCS in EC growth media in Petri dishes plates followed by 24 hours incubation under hypoxia conditions with ADOPep1 (10 ng/ml), anti GRP78 antibody (Santa Cruz Biotechnology, Calif., USA) (1 microgram/ml) or recombinant VEGF (10 ng/ml). The Annexin V FITC/PI detects the phosphatidylserin on the apoptotic cells using flow cytometry. Human Annexin V-FITC kit (Bender Medsystems, Vienna, Austria) was used for the measurement of EC apoptosis percentage following manufacturer's instructions. Samples were analyzed using a fluorescence activated cell sorter (FACScan Beckton Dickinson, Calif., USA).

For test [5], the system named is endothelial cells. Description: Inhibition of binding of biotinylated ADOPep1 to endothelial cells by motif peptides. Further details: species or system human. Conditions: normoxia, peptides 0.01, 0.1 or 1 ng/ml, ADOPep1^Biot 2 μg/ml. The procedure:
FIG. 23 is a graph depicting the inhibition of binding of ADOPep1^Biot (2 μg/ml) to endothelial cells by specific peptides corresponding to conserved motifs from the ADOPeps. Endothelial cells were incubated for 2 hours under normoxia conditions in the presence of increasing concentrations (0.01, 0.1 or 1 ng/ml) of peptides having the amino acid sequences corresponding to Motif A (HWRRP; SEQ ID NO:7), Motif B (HWRRA; SEQ ID NO:8), Motif C (AHLLP; SEQ ID NO:6) or non-biotinylated ADOPep1 (SEQ ID NO:2) and then were incubated for 1 hour with biotinylated ADOPep1 (2 μg/ml) and the binding of biotinylated ADOPep1 to endothelial cells was determined using HRP-streptavidin.

For test [6], the target named is T1, GRP78 on endothelial cells (Homo sapiens, UniProt P11021).
T1 construct: endogenous in cells; host or cells: HUVEC / endothelial cells from umbilical cords, under normoxia or hypoxia
T1 sequence (P11021 19-654): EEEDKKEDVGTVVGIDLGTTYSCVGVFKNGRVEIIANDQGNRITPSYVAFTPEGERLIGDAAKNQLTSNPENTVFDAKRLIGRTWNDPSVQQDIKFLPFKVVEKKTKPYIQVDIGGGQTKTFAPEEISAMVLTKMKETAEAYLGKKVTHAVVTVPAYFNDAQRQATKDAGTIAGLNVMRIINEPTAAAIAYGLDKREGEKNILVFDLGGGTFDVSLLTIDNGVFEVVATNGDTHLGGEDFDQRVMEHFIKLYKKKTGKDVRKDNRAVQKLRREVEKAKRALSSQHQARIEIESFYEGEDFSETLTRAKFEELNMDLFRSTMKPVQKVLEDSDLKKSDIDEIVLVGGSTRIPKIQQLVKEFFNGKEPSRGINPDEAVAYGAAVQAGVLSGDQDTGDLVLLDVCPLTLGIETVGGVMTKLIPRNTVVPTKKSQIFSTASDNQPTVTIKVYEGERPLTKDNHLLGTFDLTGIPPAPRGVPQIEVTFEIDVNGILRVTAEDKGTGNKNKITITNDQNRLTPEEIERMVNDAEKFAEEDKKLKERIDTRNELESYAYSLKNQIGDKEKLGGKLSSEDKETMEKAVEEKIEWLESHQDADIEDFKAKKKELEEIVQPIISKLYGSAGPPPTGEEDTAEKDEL
Description: FACS competition of peptides with GRP78 polyclonal antibody on endothelial cells under hypoxia. Format: binding. Conditions: hypoxic conditions; listed as motif C. The procedure:
Endothelial cells were cultured for 24 hours under hypoxic conditions in endothelial cell growth medium. Cells were removed by trypsin and incubated for 1 hour on ice with increasing concentrations of AdoPep1, Motif A and Motif C peptides. GRP78 polyclonal antibody (2 μg/100,000) was added to the cells for 2 hours on ice. Anti-goat FITC (Jackson ImmunoResearch) was added for 30 minutes on ice. IgG1-FITC was used as the isotype control. The samples were analyzed with a FACScan (Beckton Dickinson). […] FIG. 28d depicts the average percent binding of GRP78 to endothelial cells as a function of peptide amount as determined by 2 independent experiments.

Entries after “also recorded” stand apart in the source; their conditions may differ. Ends that are not written are not given here.

GRP78, sequence (P11021 19-654): as above

As for “biotinylated ADOPep1: biotinylated ADOPep1 (SEQ ID NO:2) (HWRRAHLLPRLP; also: biotinylated)”, the “binding to endothelial cells under hypoxia versus normoxia” value in test [1] is “increased under hypoxia”. Also, in test [2], the “protein (receptor) bound by the peptide in endothelial cell lysate” value is recorded as “GRP78 protein”.
With “AHLLP [Motif C, 5 amino acid motif peptide without HWRR]”, the “migration of endothelial cells” value in test [3] is on record as “no significant effect on endothelial cell migration”. The “effect on hypoxia-induced apoptosis of endothelial cells” value is “no effect on apoptosis” in test [4] and “no effect on hypoxia induced apoptosis” in test [4] (listed as motif C). Further, the “percent apoptosis (PI/Annexin V)” value in test [4] (FIGS. 24a-d, 10 ng/ml, hypoxia alone 79.3%) is listed as 81.1%. The “inhibition of the binding of ADOPep1^Biot to endothelial cells” value in test [5] is reported as “moderate inhibition of binding”. In addition, the “inhibition of anti GRP78 binding to endothelial cells (in words)” value in test [6] was “did not inhibit anti GRP78 binding”.
Take “HWRRA [Motif B, 5 amino acid motif peptide]”: in test [3], the “migration of endothelial cells” value was “induced endothelial cell migration”. For the same substance, the “effect on hypoxia-induced apoptosis of endothelial cells” value in test [4] is on record as “capable of inhibiting the hypoxia induced apoptosis; also recorded: significant inhibition of hypoxia induced apoptosis”. The “inhibition of the binding of ADOPep1^Biot to endothelial cells” value in test [5] is “significant inhibition”.

These data come from patent publication US8741843B2, “Compositions and methods for inducing angiogenesis” (priority 2006, dated 2014).
